Reference: patent US10668102B2, “Lineage differentiation of encapsulated embryonic stem cells” (Rutgers, The State University of New Jersey, priority 2010, dated 2020)

Assays:
encapsulated ES cells [1] = experiment: Three dimensional alginate poly-L-lysine encapsulated oligodendrocyte differentiation, immunofluorescence; type: cell-based, mouse; conditions: for O1 expression / CNPase expression / MBP expression: IMDM + RA 8 days then PPAR agonist; for CNPase expression: peak
Description: The alginate encapsulation process was done using the protocol setup by Maguire, T., et al., Biotechnol. Bioeng., 93(3):581-91(2006). Briefly, an alginate solution was generated by dissolving 2.2 g of alginate (Sigma-Aldrich, MW: 100,000-200,000 g/mol, GContent: 65%-70%) in 100 mL of Ca^2+ free DMEM, using a heated magnetic stir plate at a temperature of 45° C. The solution was then filtered using a 25-micron syringe filter (Fisher Brand, Pittsburgh, Pa.). A confluent monolayer of undifferentiated ES cells were removed following trypsin incubation, centrifuged for 10 min at 1,000 rpm, and resuspended in PBS. The cells were washed twice more with PBS, resuspended in 2 mL of their respective media (IMDM, IMDM+Retinoic Acid (RA) (1×10^−7M), DMEM/F12+N2) and both cell number and viability assessed using the method of trypan blue (Gibco) exclusion. To create the cell-alginate mixture, 1 mL of cell suspension with a density of 50×10^6 cells/mL was added to 9 mL of a 2.2% (w/v) alginate solution to yield a final cell density of 5×10^6 cells/mL and a final alginate concentration of 2.0% (w/v). This solution was transferred to a 10 mL syringe (BD Biosciences), which, in turn was connected to a syringe pump (KD Scientific, Holliston, Mass.). Alginate beads were generated using an electrostatic bead generator (Nisco, Zurich, Switzerland) at a flow rate of 40 mL/h, and an applied voltage of 6.5 kV, resulting in beads with a diameter of 500 μm. The beads were collected in a 200 mL bath of CaCl2 (100 mM) (Sigma-Aldrich), containing 145 mM NaCl (Sigma-Aldrich), and 10 mM MOPS (Sigma-Aldrich) and were left to polymerize for 10 minutes at room temperature. Beads were transferred to a tissue culture treated 1-25 flask (Falcon, BD Biosciences), following the polymerization step. The CaCl2 solution was removed using a 5 mL pipette, and the beads were washed with 5 mL of HEPES (Gibco). The HEPES was removed and the beads were re-suspended in 5 mL of poly-L-lysine (PLL) (Sigma-Aldrich, MW: 68,600 g/mol) (0.05% w/v) for 2 min. The PLL was then gently removed, replaced with HEPES to wash the beads and the beads were ultimately re-suspended in 5 mL of cell culture media. Media was changed every 4 days post-encapsulation. In all experimental conditions, monolayer culture configurations were used as controls.
Cells were fixed for immunofluorescence analysis on Days 8, 14, 18 and 22.
Cells were fixed before doing any immunofluorescence.
Specimens were excited using a 488 nm filter.

ESD3 cells [2] = conditions: for cell morphology / CNPase expression over time / O1 expression over time: 2D; for cell morphology: Day 30, after 14 days of agonist exposure; for CNPase expression over time / O1 expression over time: agonist from Day 16 to Day 30
Description: In order to induce differentiation, cells were replated into gelatin coated 6 well plates (Biocoat, BD-Biosciences, Bedford, Mass.) at a density of 1×10^4 cells/cm^2. Cells were placed in DMEM/F12 (Invitrogen, Carlsbad, Calif.) media supplemented with 1% N-2 (Invitrogen—contains human transferrin, insulin, progesterone, putrescine and selenite), 100 U/mL penicillin and 100 U/mL streptomycin for 8 days. Every 2 days, media was aspirated and replaced with fresh media. On day 8, the cells were replated at a density of 0.5×10^4 cells/cm^2 into 24 well plates (Falcon, BD Biosciences, San Jose, Calif.) that were precoated with 0.1% Gelatin (Sigma-Aldrich) for 1 hour at 37° C. To aid in cell attachment, 10 ng/ml basic fibroblast growth factor (bFGF) was added. From day 8 to day 16, 1% Fetal Bovine Serum (FBS-Invitrogen) is added. Every 2 days, media was aspirated and replaced with fresh media.
On day 16, the cells are replated at a density of 0.5×10^4 cells/cm^2 into the same differentiation media supplemented with either 10 μM PPAR alpha (Sigma-Aldrich: WY-14643), 1 μM PPAR delta (Sigma-Aldrich: GW0742), or 10 μM PPAR gamma (Sigma-Aldrich: GW1929). All three agonists were dissolved in 0.05% DMSO (Sigma-Aldrich). Every 2 days, media was aspirated and replaced with fresh media with agonists. Cells were fixed for immunofluorescence analysis on Days 22, 26 and 30.
Cells were fixed before doing any immunofluorescence. This was done by first washing the cells 3 times in Tris Buffered Saline (TBS) followed by incubating the cells in 4% paraformaldehyde (Sigma-Aldrich) for 15 minutes at room temperature. The cells were again washed 3 times in TBS for 5 minutes at room temperature). In order to reduce non-specific binding of the antibodies to proteins on/within the cells, they were first blocked for 45 minutes at room temperature by incubating the cells with TBS, 10% goat serum (Invitrogen), 1% Bovine Serum Albumin (BSA-Sigma) and depending on if the protein in question is intracellular, 0.1% Triton X-100. The cells were then incubated overnight at 4° C. with the respective primary antibody in TBS, 1% goat serum and if the protein in question was intracellular, 0.1% Triton X-100. The antibodies used were: 5 μg/ml mouse anti-A2B5 IgM (Chemicon), 2 μg/ml mouse anti-O1 IgM (R&D Systems, Minneapolis, Minn.), 12.6 μg/ml mouse anti-CNPase (2′, 3′-cyclic nucleotide 3′-phosphodiesterase) IgG1 (Sigma) and 8 μg/ml rabbit anti-Myelin Basic Protein IgG (MBP—abcam, Cambridge, Mass.). To account for non-specific binding, isotype controls were used for each antibody: for A2B5 and O1—mouse IgM (Chemicon), for CNPase—mouse IgG1 (BD Biosciences) and for MBP—rabbit IgG (Invitrogen). The cells were washed 3 times for 5 minutes in TBS and if the protein in question was intracellular, 0.1% […]. The cells were then incubated for 1 hour at room temperature with the respective secondary in TBS and if the protein in question is intracellular, 0.1% Triton X-100. The secondaries used were: for A2B5 and O1—Alexa Fluor 488 goat anti-mouse IgM (Invitrogen—1:500), CNPase—Alexa Fluor 488 goat anti-mouse IgG1 (Invitrogen—1:500) and MBP—Alexa Fluor 488 goat anti-rabbit IgG (Invitrogen—1:500). The cells were then washed 2 times in TBS for 5 minutes at room temperature. The cells were counterstained with Hoechst 33342 (Invitrogen) for 10 minutes at room temperature (1 μg/ml).
Fluorescent images were acquired using a computer interfaced inverted Olympus IX70 microscope. Specimens were excited using a 488 nm filter. Fluorescent intensity values were determined for each cell using Olympus Microsuite™ software. Experimental intensity values for each cell were calculated after subtracting the average intensity of the isotype control.

ESD3 cells [3] = experiment: Oil Red O staining of monolayer ESD3 cells; type: cell-based, mouse; conditions: 2D, by Day 30
Description: After the cells were fixed using 4% paraformaldehyde, they were then washed twice with PBS and rinsed once with 60% isopropanol (Sigma) for 5 minutes. A 0.18% Oil Red O (Sigma) solution in diH2O was then added to the cells for 10 minutes (diluted down from a 0.3% stock solution of Oil Red O in 99% isopropanol and filtered through filter paper). The cells were then rinsed several times with PBS (30 second rinses) until all excess Oil Red O was removed. […] Images were taken using an Olympus CKX-41 microscope with an Olympus Magnafire Color Camera and Magnafire software v.2.1C.
Oil Red O is a fat-soluble dye used for the staining of neutral triglycerides and lipids and among other things is used to detect myelin and myelin degradation products (Boven, L. A., et al., Brain, 129(Pt 2):517-526 (2006); Zou, T., et al., J. Neuropathol. Exp. Neurol., 65(1):78-86 (2006)).

encapsulated ES cells [4] = experiment: Intracapsular immunofluorescence of neural lineage markers and albumin in encapsulated ES cells; type: cell-based, mouse; conditions: 2.2% alginate, 10^-7 M retinoic acid
Description: Alginate solution was prepared by dissolving 2.2 g of alginic acid sodium salt (MW: 100,000-200,000 g/mol, G Content: 65%-70%, Sigma-Aldrich) in 100 mL of Ca^2+ free DMEM (Gibco), using a heated magnetic stir plate at a temperature of 65° C. The solution was then filtered using a 45 μm syringe filter (Fisher Scientific, Pittsburgh, Pa.). To create the cell-alginate mixture, 1 mL aliquot of cell suspension with a seeding density of 5×10^7 cells/mL was added to 9 mL of either 1.2%, 1.7%, 2.2% or 2.5% (w/v) alginate solution to yield a final cell seeding density of 5×10^6 cells/mL. This solution was transferred to a 10 mL syringe, and was connected to a syringe pump (KD Scientific, MA). Alginate beads were generated using an electrostatic bead generator (Nisco, Zurich, Switzerland) at a flow rate of 40 mL/h, and an applied voltage of 6.4 kV. The beads were extruded into a 200 mL bath of CaCl2 (100 mM), containing 145 mM NaCl, and 10 mM MOPS (all from Sigma-Aldrich) and were left to polymerize for 10 min at room temperature (Maguire, T., et al., Biotechnol. Bioeng., 93(3):581-591 (2006)). Beads were then transferred to a tissue culture treated T-25 flask. The CaCl2 solution was removed using a 5 mL pipette, and the beads were washed with 5 mL of HEPES (Gibco). The HEPES was removed and the beads were resuspended in 5 mL of poly-L-lysine (PLL) (Sigma-Aldrich, MW 68,600 g/mol) (0.05% w/v) for 2 min. The PLL was then gently removed, replaced with HEPES to wash the beads and the beads were ultimately resuspended into 5 mL of IMDM medium (Invitrogen, Carlsbad, Calif.) media with and without 10^−7M trans-retinoic acid (Bain, G., et al., Dev. Biol., 168(2):342-357 (1995)). Media was changed at days 4, 8, 12, 16 and 20 post-encapsulation.
To assess the effect of RA on lineage commitment within the alginate microenvironment, individual cells were examined within the encapsulated population using indirect immunofluorescence analysis with a panel of neural lineage specific antibodies, including neurofilament 160 kD (neuronal marker), O1 (oligodendrocyte marker) and GFAP (astrocyte marker). Specific antibody binding was assessed relative to a non-specific immunoglobulin control.
After assessing the neural specific markers, the inventors also investigated the effects of different alginate concentrations, e.g., 1.2%, 1.7% and 2.5%, on neural differentiation in the alginate encapsulation microenvironment.
Encapsulated cells were washed with PBS (Gibco) and fixed on days 4, 8, 12, 16 and 20 with 4% paraformaldehyde to evaluate surface proteins or together with 0.25% Triton-X to evaluate intracellular protein expression. […]

encapsulated ES cells [5] = experiment: Three dimensional alginate poly-L-lysine encapsulated oligodendrocyte differentiation, immunofluorescence; type: cell-based, mouse; conditions: 3D encapsulated, IMDM with Retinoic Acid, Day 12
ES cell line D3 = experiment: Cell number and viability of alginate-encapsulated ES cells (trypan blue after depolymerization); type: cell-based, mouse; conditions: 2.2% w/v alginate, 5×10^6 cells/mL, with RA
Description: All cell cultures were incubated in a humidified 37° C., 5% CO2 environment. The ES cell line D3 (ATCC, Manassas, Va.) was maintained in an undifferentiated state in T-75 gelatin-coated flasks (Biocoat, BD-Biosciences, Bedford, Mass.) in Knockout Dulbecco's modified Eagles medium (Gibco, Grand Island, N.Y.) containing 15% knockout serum (Gibco), 4 mM L-glutamine (Gibco), 100 U/ml penicillin (Gibco), 100 U/ml streptomycin (Gibco), 10 mg/ml gentamicin (Gibco), 1,000 U/ml ESGRO™ (Chemicon, Temecula, Calif.) and 0.1 mM 2-mercaptoethanol (Sigma-Aldrich, St. Louis, Mo.). Media was changed every two days until plates were confluent. ES cultures were split and passaged every 6 days. Following media aspiration, cells were washed with 10 mL of phosphate buffered solution (PBS) (Gibco), detached using 3 mL of trypsin EDTA (Gibco) for 3 minutes, and subsequently 12 mL of Knockout DMEM was added. Cells were then replated in gelatin-coated T-75 flasks at a density of 1 million cells/mL and only passages 10 through 25 were used in the experiments. In order to induce differentiation, cells were cultured in Iscove's modified Dulbecco's medium (Gibco) containing 20% fetal bovine serum (Gibco), 4 mM L-glutamine (Gibco), 100 U/ml penicillin (Gibco), 100 U/ml streptomycin (Gibco), 10 mg/ml gentamicin (Gibco) in the presence or absence of 10^−7M trans-retinoic acid (Sigma-Aldrich). […]

encapsulated ES cells [6] = experiment: Intracapsular aggregate size of encapsulated ES cells; type: cell-based, mouse; conditions: in the presence of retinoic acid, entire differentiation period
Description: Bright field images were acquired using an Olympus IX70 microscope and an Olympus digital camera. For each microcapsule, 5 z-sectional images were taken at 50 μm intervals to avoid multiple quantification of the same aggregate, for a total depth of 250 μm. Image quantification was conducted using Olympus Microsuite imaging analysis software.

SMILES	O1 expression (encapsulated ES cells [1]; 3D, day 22)	CNPase expression (encapsulated ES cells [1]; 3D, day 22)	cell morphology (ESD3 cells [2])	CNPase expression over time (ESD3 cells [2])	O1 expression over time (ESD3 cells [2])	Oil Red O stain compared to control (ESD3 cells [3])	MBP expression (encapsulated ES cells [1]; 3D, day 22)	further results
Cc1cccc(Nc2cc(Cl)nc(SCC(=O)O)n2)c1C [PPAR alpha, WY-14643]	~15%	about 60%	majority of cells have extended processes with some having secondary branching	increases over the initial 6 days and stabilizes for the remaining 8 days	drops consistently over the 14 day period	minimal effect compared to control		MBP expression over time (encapsulated ES cells [1]; 3D, IMDM + RA 8 days then PPAR agonist for 14 days): stays pretty constant over the time period; O1 expression (encapsulated ES cells [1]; 3D, day 18): ~35%
Cc1cc(SCc2sc(-c3ccc(C(F)(F)F)c(F)c3)nc2C)ccc1OCC(=O)O [PPAR delta, GW0742]		about 40%	majority of cells have extended processes with some having secondary branching	gradually increases over the 14 day period	drops sharply over the last 8 days	significantly higher than control	~80%	differentiation at various concentrations (encapsulated ES cells [1]; 3D, 0.1 μM, 1 μM and 10 μM): No significant differences
CN(CCOc1ccc(C[C@H](Nc2ccccc2C(=O)c2ccccc2)C(=O)O)cc1)c1ccccn1 [PPAR gamma, GW1929]	about 22%	~53%	two distinct morphologies	large increase over the initial 10 days thereafter stabilizing	gradually tapers over the 14 day period	significantly higher than control	about 45%	O1 expression (encapsulated ES cells [1]; 3D, day 14): about 42%; MBP expression (encapsulated ES cells [1]; 3D, day 18): about 74%; cell death compared to all other cases (ESD3 cells [2]): significant increase in cell death
CC1=C(/C=C/C(C)=C/C=C/C(C)=C/C(=O)O)C(C)(C)CCC1 [retinoic acid, trans-retinoic acid]								A2B5 expression (highest, as stated in text) (encapsulated ES cells [1]; 3D encapsulated, exposure to RA for 16 days): 44%; encapsulated cells stained positively for intracellular albumin (encapsulated ES cells [4]): less than 5%; maximum percentage of encapsulated cells positively stained for GFAP (encapsulated ES cells [4]): 38.6%; maximum percentage of encapsulated cells positively stained for NF 150 kD (encapsulated ES cells [4]): 41.9%; maximum percentage of encapsulated cells positively stained for O1 (encapsulated ES cells [4]): 32.3%; CNPase expression (encapsulated ES cells [5]): 32%; O1 expression (encapsulated ES cells [5]): 32%; final density relative to the initial seeding density (ES cell line D3; 20-day culture): 2.5 times; Cell viability (ES cell line D3; throughout the culture period): greater than 95%; size of individual cells (encapsulated ES cells [6]): approximately 13 μm
